The values that follow come from ChEMBL document CHEMBL3875181, “Recent discovery of non-nucleobase thymidine phosphorylase inhibitors targeting cancer” (Eur J Med Chem, 2016).

The target of test [1] is T1, Thymidine phosphorylase (Escherichia coli K-12, UniProt P07650). Description: Inhibition of Escherichia coli K12 thymidine phosphorylase expressed in Escherichia coli using thymidine as substrate addition measured up to 20 mins by Uv-vis spectrophotometric method.
Test [2] deals with T1, Thymidine phosphorylase. Description: Inhibition of Escherichia coli K12 thymidine phosphorylase expressed in Escherichia coli preincubated for 10 mins followed by substrate addition measured up to 30 mins by spectrophotometric method.
A short description of test [3]: Non-competitive inhibition of Escherichia coli thymidine phosphorylase expressed in Escherichia coli preincubated for 10 mins followed by varying levels of thymidine substrate addition by Lineweaver-Burk plot analysis.
A short description of test [4]: Inhibition of Escherichia coli thymidine phosphorylase expressed in Escherichia coli preincubated for 10 mins followed by thymidine substrate addition measured for 10 mins by spectrophotometric method.
Test [5] concerns the target T2, Thymidine phosphorylase (Homo sapiens, UniProt P19971).
T2 sequence (P19971 whole entry): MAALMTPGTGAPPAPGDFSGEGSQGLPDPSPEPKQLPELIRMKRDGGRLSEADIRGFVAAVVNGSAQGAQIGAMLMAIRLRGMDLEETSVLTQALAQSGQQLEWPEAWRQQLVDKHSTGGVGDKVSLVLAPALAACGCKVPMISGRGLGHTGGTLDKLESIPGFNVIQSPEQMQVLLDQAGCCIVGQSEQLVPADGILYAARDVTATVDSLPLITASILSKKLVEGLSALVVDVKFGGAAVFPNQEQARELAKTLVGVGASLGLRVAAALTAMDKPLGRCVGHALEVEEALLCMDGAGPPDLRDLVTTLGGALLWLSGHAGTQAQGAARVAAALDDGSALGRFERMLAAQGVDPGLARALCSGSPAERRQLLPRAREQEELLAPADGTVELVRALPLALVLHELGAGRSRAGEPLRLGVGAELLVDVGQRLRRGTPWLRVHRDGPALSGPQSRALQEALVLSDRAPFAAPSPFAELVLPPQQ
In words: Inhibition of human thymidine phosphorylase using thymidine as substrate preincubated for 30 mins followed substrate addition measured up to 30 mins.

The target in test [6] is Thymidine phosphorylase (Escherichia coli K-12) (UniProt P07650). Description: Potency index, ratio of 7-DX IC50 to compound IC50 for Escherichia coli K12 thymidine phosphorylase expressed in Escherichia coli.
Sequence of Thymidine phosphorylase (Escherichia coli K-12) (P07650 whole entry, looked up): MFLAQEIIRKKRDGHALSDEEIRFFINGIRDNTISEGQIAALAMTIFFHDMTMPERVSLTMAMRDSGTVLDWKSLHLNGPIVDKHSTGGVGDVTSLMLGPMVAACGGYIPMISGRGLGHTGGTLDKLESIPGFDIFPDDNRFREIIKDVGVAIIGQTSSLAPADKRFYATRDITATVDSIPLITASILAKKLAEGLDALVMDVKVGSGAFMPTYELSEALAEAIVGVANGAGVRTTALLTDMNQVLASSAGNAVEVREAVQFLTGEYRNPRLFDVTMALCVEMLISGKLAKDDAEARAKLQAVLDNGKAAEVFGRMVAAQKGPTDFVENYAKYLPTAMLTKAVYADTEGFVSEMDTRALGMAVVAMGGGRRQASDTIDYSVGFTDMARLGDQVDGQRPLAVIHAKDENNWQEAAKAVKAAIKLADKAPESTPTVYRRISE

T1 sequence (P07650 whole entry): as the sequence (P07650 whole entry, looked up) above

In turn, `O=c1[nH]c(SCc2ccccc2)nc2nc(-c3ccccc3)nn12` registered an IC50 on Thymidine phosphorylase [1] of 111 µM. On Thymidine phosphorylase [2], `Oc1ccc(-c2nnc(S)o2)cc1` displayed an IC50 of 38.2 µM. This counts as double-digit micromolar. `O=c1[nH]c(-c2ccc(O)c(O)c2)nc2ccccc12`: the affinity in test [3] corresponds to a Ki of 52.3 µM. The compound further displayed a concentration for half-maximal inhibition (IC50) in test [4] of 42.9 µM. `O=C(OCc1cc(O)ccc1O[C@@H]1O[C@H](CO)[C@@H](O)[C@@H](OC(=O)c2ccc(O)cc2)[C@H]1O)c1ccccc1` had an IC50 against Thymidine phosphorylase [5] of 226 µM.

`Oc1cc(O)c(/C=N/Nc2cnc3ccccc3n2)cc1O` came in with an IC50 against Thymidine phosphorylase [2] of 3.2 µM. Besides, the Ratio IC50 in test [6] stood at 12.
